We go through 34 compounds from patent US11370774B2, “Substituted benzofuran, benzopyrrole, benzothiophene, and structurally related complement inhibitors” (BioCryst Pharmaceuticals, Inc., priority 2018, dated 2022).

Some results are limits rather than exact numbers.

The experiment concerns the target Factor D (Homo sapiens (Human), UniProt P00746). As to the kind of experiment: Factor D esterolytic assay (Z-Lys-SBzl substrate, DTNB, 405 nm). The class given is biochemical. The conditions noted are these: Z-Lys-SBzl 1.29 mM, pH 7.5, 10% DMSO, tested a minimum of three times, read-out: Measured Ki (IC50) Value for Compounds: IC50. The procedure, abridged:
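Thioester hydrolysis (Z-Lys-SBzl, 1.29 mM) by human Factor D ([…]) detected through DTNB color at 405 nm over 600 sec, minus 690 nm background. Buffer: 100 mM HEPES pH 7.5, 500 mM NaCl, 10% DMSO; optional room-temperature preincubation before substrate. IC50 derived from percent rate inhibition; at least three runs.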

Factor D, sequence (P00746 26-253): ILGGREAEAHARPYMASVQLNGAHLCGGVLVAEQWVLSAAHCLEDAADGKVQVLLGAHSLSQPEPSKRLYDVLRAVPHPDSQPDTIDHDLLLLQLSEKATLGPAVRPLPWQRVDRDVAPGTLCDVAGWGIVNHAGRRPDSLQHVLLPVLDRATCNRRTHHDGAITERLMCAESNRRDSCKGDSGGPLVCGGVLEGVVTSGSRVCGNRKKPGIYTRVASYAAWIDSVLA

Take `NCc1cccc(-c2cc(COc3ccccc3CC(=O)O)cc3c(C(F)(F)F)coc23)c1` [Compound 154g, 2-(2-((7-(3-(aminomethyl)phenyl)-3-(trifluoromethyl)benzofuran-5-yl)methoxy)phenyl)acetic acid]: the IC50 was under 1000 nM.

For `NCc1nccc(-c2cc(COc3ccccc3CC(=O)O)cc3[nH]ccc23)c1F` [Compound 12c, 2-(2-((4-(2-(aminomethyl)-3-fluoropyridin-4-yl)-1H-indol-6-yl)methoxy)phenyl)acetic acid], the IC50 is under 1000 nM. The same measure for `Cc1coc2c(-c3cccc(CN)c3F)cc(COc3ccccc3CC(=O)O)cc12` [Compound 383b, 2-(2-((7-(3-(aminomethyl)-2-fluorophenyl)-3-methylbenzofuran-5-yl)methoxy)phenyl)acetic acid]: under 1000 nM. Turning to `NCc1cccc(-c2nc(COc3ccccc3CC(=O)O)nn3cccc23)c1` [Compound 8e, 2-(2-((4-(3-(aminomethyl)phenyl)pyrrolo[2,1-f][1,2,4]triazin-2-yl)methoxy)phenyl)acetic acid], the IC50 was under 1000 nM. Regarding `NCc1cc(-c2cc(COc3ccccc3CC(=O)O)c(F)c3ccoc23)ccn1` [Compound 172b, 2-(2-((7-(2-(aminomethyl)pyridin-4-yl)-4-fluorobenzofuran-5-yl)methoxy)phenyl)acetic acid], the IC50 is under 1000 nM. Under `CC(C)c1ccc(CC(=O)O)c(OCc2cc(-c3cccc(CN)c3)c3occc3c2)c1` [Compound 312b, 2-(2-((7-(3-(aminomethyl)phenyl)benzofuran-5-yl)methoxy)-4-isopropylphenyl)acetic acid] stands under 1000 nM.

As to `COCc1cc2cc(COc3cc(C)ccc3CC(=O)O)cc(-c3cccc(C(N)CF)c3)c2o1` (single isomer, unassigned; (+)) [Compound 455c, (+)-2-(2-((7-(3-(1-amino-2-fluoroethyl)phenyl)-2-(methoxymethyl)benzofuran-5-yl)methoxy)-4-methylphenyl)acetic acid], the IC50 was under 1000 nM. The same measure for `Cc1cc2cc(COc3cc(C#N)ccc3CC(=O)O)cc(-c3cccc(CN)c3)c2o1` [Compound 419c, 2-(2-((7-(3-(aminomethyl)phenyl)-2-methylbenzofuran-5-yl)methoxy)-4-cyanophenyl)acetic acid]: under 1000 nM. The same measure for `NCc1cccc(-c2nc(C(=O)Nc3ccccc3CC(=O)O)nc3[nH]ccc23)c1` [Compound 3i, 2-(2-(4-(3-(aminomethyl)phenyl)-7H-pyrrolo[2,3-d]pyrimidine-2-carboxamido)phenyl)acetic acid]: under 1000 nM; for `CC(C)c1ccc(CC(=O)O)c(OCc2cc(-c3cccc(CN)c3F)c3occc3c2)c1` [Compound 307f, 2-(2-((7-(3-(aminomethyl)-2-fluorophenyl)benzofuran-5-yl)methoxy)-4-isopropylphenyl)acetic acid]: under 1000 nM; for `NCc1cccc(-c2nc(C(=O)Nc3ccccc3CC(=O)O)nc3ccoc23)c1` [Compound 36h, 2-(2-(4-(3-(aminomethyl)phenyl)furo[3,2-d]pyrimidine-2-carboxamido)phenyl)acetic acid]: under 1000 nM. The same measure for `CC(=O)Nc1ccc(CC(=O)O)c(OCc2cc(-c3cccc(CN)c3)c3oc(C)cc3c2)c1` [Compound 426c, 2-(4-acetamido-2-((7-(3-(aminomethyl)phenyl)-2-methylbenzofuran-5-yl)methoxy)phenyl)acetic acid]: under 1000 nM. On to `Cn1ncc2c(-c3cccc(CN)c3)cc(COc3ccccc3CC(=O)O)cc21` [Compound 131b, 2-(2-((4-(3-(aminomethyl)phenyl)-1-methyl-1H-indazol-6-yl)methoxy)phenyl)acetic acid], for which the IC50 is under 1000 nM. For `NCc1cccc(-c2cc(COc3ccccc3CC(=O)O)cc3c(N)noc23)c1F` [Compound 245g, 2-(2-((3-amino-7-(3-(aminomethyl)-2-fluorophenyl)benzo[d]isoxazol-5-yl)methoxy)phenyl)acetic acid], the IC50 is under 1000 nM. Under `NCc1cc(-c2cc(COc3ccc(F)cc3CC(=O)O)c(F)c3ccoc23)ccn1` [Compound 389c, 2-(2-((7-(2-(aminomethyl)pyridin-4-yl)-4-fluorobenzofuran-5-yl)methoxy)-5-fluorophenyl)acetic acid] stands under 1000 nM; under `NCc1cccc(-c2cc(COc3cc(-c4ccoc4)ccc3CC(=O)O)cc3ccoc23)c1` [Compound 313c, 2-(2-((7-(3-(aminomethyl)phenyl)benzofuran-5-yl)methoxy)-4-(furan-3-yl)phenyl)acetic acid], under 1000 nM; under `NCc1cccc(-c2cc(COc3ccccc3CC(=O)O)cc3[nH]c(C(F)(F)F)cc23)c1F` [Compound 501f, 2-(2-((4-(3-(aminomethyl)-2-fluorophenyl)-2-(trifluoromethyl)-1H-indol-6-yl)methoxy)phenyl)acetic acid], under 1000 nM.

As for `NCc1cccc(-c2cc(COc3cc(F)ccc3CC(=O)O)cc3ccoc23)c1` [Compound 260g, 2-(2-((7-(3-(aminomethyl)phenyl)benzofuran-5-yl)methoxy)-4-fluorophenyl)acetic acid], the IC50 is under 1000 nM.

For `NCc1cccc(-c2cc(COc3ccccc3CC(=O)O)cc3oc(Cl)cc23)c1F` [Compound 24b, 2-(2-((4-(3-(aminomethyl)-2-fluorophenyl)-2-chlorobenzofuran-6-yl)methoxy)phenyl)acetic acid], the concentration for half-maximal inhibition (IC50) is under 1000 nM. The same measure for `CN1CCC(N(C)Cc2cc3cc(COc4ccccc4CC(=O)O)cc(-c4cccc(CN)c4)c3o2)CC1` [Compound 210c, 2-(2-((7-(3-(aminomethyl)phenyl)-2-((methyl(1-methylpiperidin-4-yl)amino)methyl)benzofuran-5-yl)methoxy)phenyl)acetic acid]: under 1000 nM. Under `N#Cc1ccc(CC(=O)O)c(OCc2cc(-c3cccc(CN)c3)c3occc3c2)c1` [Compound 237b, 2-(2-((7-(3-(aminomethyl)phenyl)benzofuran-5-yl)methoxy)-4-cyanophenyl)acetic acid] stands under 1000 nM; under `CC(=O)Nc1ccc(CC(=O)O)c(OCc2cc(-c3cccc(CN)c3F)c3occc3c2)c1` [Compound 432c, 2-(4-acetamido-2-((7-(3-(aminomethyl)-2-fluorophenyl)benzofuran-5-yl)methoxy)phenyl)acetic acid], under 1000 nM; under `Cn1ccc(NCc2cc3cc(COc4ccccc4CC(=O)O)cc(-c4cccc(CN)c4)c3o2)n1` [Compound 372c, 2-(2-((7-(3-(aminomethyl)phenyl)-2-(((1-methyl-1H-pyrazol-3-yl)amino)methyl)benzofuran-5-yl)methoxy)phenyl)acetic acid], under 1000 nM.

On to `Cc1ccc(CC(=O)O)c(OCc2cc(-c3ccnc(CN)c3F)c3occ(C(F)(F)F)c3c2)c1` [Compound 343e, 2-(2-((7-(2-(aminomethyl)-3-fluoropyridin-4-yl)-3-(trifluoromethyl)benzofuran-5-yl)methoxy)-4-methylphenyl)acetic acid], for which the concentration for half-maximal inhibition (IC50) is under 1000 nM.

On to `NCc1cc(-c2cc(COc3ccccc3CC(=O)O)cc3cc(C(F)(F)F)oc23)ccn1` [Compound 226c, 2-(2-((7-(2-(aminomethyl)pyridin-4-yl)-2-(trifluoromethyl)benzofuran-5-yl)methoxy)phenyl)acetic acid], for which the IC50 is under 1000 nM. Under `CN(C)c1nc2cc(C(=O)Nc3ccccc3CC(=O)O)cc(-c3cccc(CN)c3)c2o1` [Compound 61f, 2-(2-(7-(3-(aminomethyl)phenyl)-2-(dimethylamino)benzo[d]oxazole-5-carboxamido)phenyl)acetic acid] stands 1000 to 10000 nM. Under `NCc1cccc(-c2cc(NC(=O)[C@H]3CCCN3CC(=O)O)cc3ccoc23)c1` [Compound 408e, (R)-2-(2-((7-(3-(aminomethyl)phenyl)benzofuran-5-yl)carbamoyl)pyrrolidin-1-yl)acetic acid] stands over 10000 nM; under `Cc1cc(CC(=O)O)c(OCc2cc(-c3cccc(CN)c3)c3occc3c2)c2c1CCC2` [Compound 286g, 2-(4-((7-(3-(aminomethyl)phenyl)benzofuran-5-yl)methoxy)-7-methyl-2,3-dihydro-1H-inden-5-yl)acetic acid], under 1000 nM; under `NCc1cccc(-c2cc(COc3ccccc3CC(=O)O)cc3cc(CNC(=O)Cc4ccccc4)oc23)c1` [Compound 296c, 2-(2-((7-(3-(aminomethyl)phenyl)-2-((2-phenylacetamido)methyl)benzofuran-5-yl)methoxy)phenyl)acetic acid], under 1000 nM. Under `NCc1cccc(-c2cc(COc3ccccc3Cc3nn[nH]n3)cc3ccoc23)c1` [Compound 311b, (3-(5-((2-((2H-tetrazol-5-yl)methyl)phenoxy)methyl)benzofuran-7-yl)phenyl)methanamine] stands over 10000 nM. For the compound `COc1cccc(CC(=O)O)c1OCc1cc(-c2ccnc(CN)c2F)c2occc2c1` [Compound 527b, 2-(2-((7-(2-(aminomethyl)-3-fluoropyridin-4-yl)benzofuran-5-yl)methoxy)-3-methoxyphenyl)acetic acid], the IC50 is under 1000 nM. As for `NCc1cc(-c2cc(COc3ccccc3CC(=O)O)cc3ccoc23)ccc1F` [Compound 60c, 2-(2-((7-(3-(aminomethyl)-4-fluorophenyl)benzofuran-5-yl)methoxy)phenyl)acetic acid], the IC50 was under 1000 nM.

Regarding `CCCc1ccc(CC(=O)O)c(OCc2cc(-c3cccc(CN)c3)c3occc3c2)c1` [Compound 266g, 2-(2-((7-(3-(aminomethyl)phenyl)benzofuran-5-yl)methoxy)-4-propylphenyl)acetic acid], the half-maximal inhibitory concentration (IC50) is under 1000 nM. As to `Cn1ncc2c(-c3ccnc(CN)c3F)cc(COc3ccccc3CC(=O)O)cc21` [Compound 151c, 2-(2-((4-(2-(aminomethyl)-3-fluoropyridin-4-yl)-1-methyl-1H-indazol-6-yl)methoxy)phenyl)acetic acid], the IC50 was under 1000 nM.
